Source: article PMC6457190, “Tridecaptin-inspired antimicrobial peptides with activity against multidrug-resistant Gram-negative bacteria” (MedChemComm, 2019)
Where a SMILES comes first, the peptide text is derived from it. [ ]: non-standard residue; d: D form. The star is where a group is joined. d(aIle) = CC[C@H](C)[C@@H](N)C(=O)O; dOrn = NCCC[C@@H](N)C(=O)O; dDab = NCC[C@@H](N)C(=O)O; Octanoyl = CCCCCCCC(=O)*; Orn = NCCC[C@H](N)C(=O)O; Dab = NCC[C@H](N)C(=O)O

Legend:
A. baumannii = format: cell-based, Acinetobacter baumannii; settings: 18 h
Description: (§1) IV. Antimicrobial testing
(§2) All minimum inhibitory concentrations (MICs) were determined according to Clinical and Standards Laboratory Institute (CLSI) guidelines. Briefly, peptides were dissolved in Muller-Hinton Broth (MHB) and serial dilutions made across a 96 well plate. Each well was inoculated with a suspension of the required bacterial strain to reach a final inoculum of 5 x 10^5 colony forming units per mL. The MIC was taken as the lowest concentration with no visible growth after 18 hours.
(§3) V. Additional information on multidrug resistant strains
(§4) Organism Resistant Susceptible
Acinetobacter baumannii Cefotaxime Imipenem
Isolated from sewage contaminated Tetracycline Colistin water (Tripoli, Lebanon). Ofloxacin Tobramycin
(§5) Acinetobacter baumannii ACM 11 Ceftazimide
(§6) Acinetobacter baumannii ACM 29 Ceftazimide
(§7) Isolated from peritoneum of 3-year- Imipenem

A. baumannii ACM 11 = format: cell-based, Acinetobacter baumannii; settings: ACM 11, 18 h
Description: as §1, §2, §3, §4, §5

A. baumannii ACM 29 = format: cell-based, Acinetobacter baumannii; settings: ACM 29, 18 h
Description: as §1, §2
V. Additional information on multidrug resistant strains […]
Organism Resistant Susceptible […]
as §6, §7

E. cloacae = format: cell-based, Enterobacter cloacae; settings: 18 h
Description: as §1, §2

K. pneumoniae IMP 170 = format: cell-based, Klebsiella pneumoniae; settings: IMP 170, 18 h
Description: as §1, §2

K. pneumoniae IMP 177 = format: cell-based, Klebsiella pneumoniae; settings: IMP 177, 18 h
Description: as §1, §2

K. pneumoniae IMP 204 = format: cell-based, Klebsiella pneumoniae; settings: IMP 204, 18 h
Description: as §1, §2

K. pneumoniae IMP 216 = format: cell-based, Klebsiella pneumoniae; settings: IMP 216, 18 h
Description: as §1, §2

K. pneumoniae IMP 485 = format: cell-based, Klebsiella pneumoniae; settings: IMP 485, 18 h
Description: as §1, §2

K. pneumoniae = format: cell-based, Klebsiella pneumoniae; settings: 18 h
Description: as §1, §2

P. pseudoalcaligenes = format: cell-based, Pseudomonas pseudoalcaligenes; settings: for Peptide MIC: 18 h; for antimicrobial activity relative to Oct-TriA1: against P. pseudoalcaligenes
Description: as §1, §2

Equine erythrocytes = format: cell-based, horse; settings: red cells of equine, 100 μg mL^–1
Description: Having assessed the antimicrobial activity of peptides 1–8 we next proceeded to assess their haemolytic activities (Table 2). Haemolytic activity was tested at 100 μg mL^–1, as the concentration required for haemolysis should be higher than antimicrobial MICs. Equine erythrocytes were exposed to peptides 1–8 and incubated for 30 min at 37 °C (Table 2). […] The low haemolytic activity observed for Oct-TriA2 (2,8-D-Lys, 7-Lys) (8) is consistent with its poor antimicrobial activity. […]
VI. Haemolytic activity assays
A 96-well plate was first prepared to contain phosphate-buffered saline (PBS) solutions (100 μL) of tridecaptin analogues 1 – 8 (200 μg/mL) (experiments run in triplicate). 0.1 % Triton X-100 (100 μL) was used as a positive control, while PBS (100 μL) was used as a blank. After the plate had been prepared, defibrinated horse blood (0.5 mL, VWR International) was diluted with phosphate-buffered saline (9.5 mL) and gently shaken. The resulting mixture was centrifuged (5600 rpm, 5 min) using a Thermo Scientific Heraeus Labofuge 200 centrifuge and the supernatant carefully removed. This process was repeated three more times to remove any free hemoglobin. The resulting erythrocyte pellet was gently resuspended in 9.5 mL of PBS. Aliquots of the resulting mixture (100 μL) were added to the appropriate wells on the 96-well plate using a multichannel pipette and the plate incubated at 37 °C for 30 min. The samples were gently mixed by pipetting, and 20 μL of each was added to 200 μL of PBS. Once again, the samples were gently mixed. The diluted samples were then centrifuged (7000 rpm, 5 min) using a SciSpin MINI Microfuge. Supernatant (150 μL) from each sample was added to a new 96-well plate. The absorbance of each sample was individually measured at 415 nm using a Denovix DS-11 FX+ Spectrophotometer. Percent hemolysis of the peptides was calculated relative to Triton X- 100, while the PBS negative control was used as a blank.

[1] = test system: panel of Gram-negative bacteria; test: MIC, summary over the panel of strains; format: cell-based
Description: Previous studies have shown that the tridecaptins have strong activity against clinically relevant Gram-negative strains.[8],[14] This includes A. baumannii and Enterobacteriaceae such as Klebsiella pneumoniae and Enterobacter spp., however P. aeruginosa is less susceptible. The World Health Organization (WHO) currently lists carbapenemase-producing strains of these Gram-negative bacteria as critical priority pathogens. We therefore decided to synthesize a library of novel tridecaptin analogues containing conservative substitutions at positions 2, 7, 8 and/or 12, and evaluate their activity against a panel of these strains (Table 1). This panel of Gram-negative bacteria contains environmental samples isolated from sewage contaminated water in Lebanon, as well as several strains isolated from patients at clinical settings. […]
MilliQ water and solvent B = 0.1 % TFA in ACN. […] High resolution mass spectrometry (HRMS) spectra of all peptides were recorded by Analytical Services and Environmental Projects (ASEP) at Queen’s University Belfast on a Waters LCT Premier ToF mass spectrometer using the electrospray ionisation (ESI) technique. […]
All minimum inhibitory concentrations (MICs) were determined according to Clinical and Standards Laboratory Institute (CLSI) guidelines. […]

Row | Compound | Peptide MIC (A. baumannii) [μg mL^–1] | Peptide MIC (A. baumannii ACM 11) [μg mL^–1] | Peptide MIC (A. baumannii ACM 29) [μg mL^–1] | Peptide MIC (E. cloacae) [μg mL^–1] | Peptide MIC (K. pneumoniae IMP 170) [μg mL^–1] | Peptide MIC (K. pneumoniae IMP 177) [μg mL^–1] | Peptide MIC (K. pneumoniae IMP 204) [μg mL^–1] | Peptide MIC (K. pneumoniae IMP 216) [μg mL^–1] | Peptide MIC (K. pneumoniae IMP 485) [μg mL^–1] | Peptide MIC (K. pneumoniae) [μg mL^–1] | Peptide MIC (P. pseudoalcaligenes) [μg mL^–1] | % haemolysis (Equine erythrocytes) [%] | antimicrobial activity relative to Oct-TriA1 (1) ([1]; against most strains tested) | antimicrobial activity relative to Oct-TriA1 (P. pseudoalcaligenes) | antimicrobial activity at the highest concentrations tested ([1]; highest concentration tested 100 μg mL^–1, all strains of the panel)
1 | CCCCCCCC(=O)N[C@@H](C(=O)N[C@H](CCN)C(=O)NCC(=O)N[C@H](CO)C(=O)N[C@H](Cc1c[nH]c2ccccc12)C(=O)N[C@@H](CO)C(=O)N[C@@H](CCN)C(=O)N[C@H](CCN)C(=O)N[C@@H](Cc1ccccc1)C(=O)N[C@@H](CCC(=O)O)C(=O)N[C@H](C(=O)N[C@@H](C(=O)N[C@@H](C)C(=O)O)C(C)C)C(C)C)C(C)C [Peptide 2, Oct-TriA2] (Octanoyl-[dV][dDab]G[dS][dW]S[Dab][dDab]FEV[dV]A-OH) | 25 | 100 | 50 | 6.25 | 12.5 | 25 | 12.5 | 12.5 | 12.5 | 12.5 | 50 | 52.1 | two- to four-fold less active |  | 
2 | CCCCCCCC(=O)N[C@@H](C(=O)N[C@H](CCCCN)C(=O)NCC(=O)N[C@H](CO)C(=O)N[C@H](Cc1c[nH]c2ccccc12)C(=O)N[C@@H](CO)C(=O)N[C@@H](CCCCN)C(=O)N[C@H](CCN)C(=O)N[C@@H](Cc1ccccc1)C(=O)N[C@@H](CCC(=O)O)C(=O)N[C@H](C(=O)N[C@@H](C(=O)N[C@@H](C)C(=O)O)[C@@H](C)CC)C(C)C)C(C)C [Peptide 4, Oct-TriA1 (2-D-Lys, 7-Lys)] (Octanoyl-[dV][dK]G[dS][dW]SK[dDab]FEV[d(aIle)]A-OH) | 50 | 25 | 50 | 25 | 25 | 25 | 25 | 25 | 25 | 50 | 25 | 71.4 |  | enhanced antimicrobial activity | 
3 | CCCCCCCC(=O)N[C@@H](C(=O)N[C@H](CCCCN)C(=O)NCC(=O)N[C@H](CO)C(=O)N[C@H](Cc1c[nH]c2ccccc12)C(=O)N[C@@H](CO)C(=O)N[C@@H](CCCCN)C(=O)N[C@H](CCCCN)C(=O)N[C@@H](Cc1ccccc1)C(=O)N[C@@H](CCC(=O)O)C(=O)N[C@H](C(=O)N[C@@H](C(=O)N[C@@H](C)C(=O)O)C(C)C)C(C)C)C(C)C [Peptide 8, Oct-TriA2 (2,8-D-Lys, 7-Lys)] (HELM PEPTIDE1{[CCCCCCCC(=O)[*:2]].[dV].[dK].G.[dS].[dW].S.K.[dK].F.E.V.[dV].A}$$$$V2.0) | >100 | >100 | >100 | >100 | >100 | >100 | >100 | >100 | >100 | >100 | >100 | 2.8 |  |  | no antimicrobial activity
4 | CCCCCCCC(=O)N[C@@H](C(=O)N[C@H](CCCCN)C(=O)NCC(=O)N[C@H](CO)C(=O)N[C@H](Cc1c[nH]c2ccccc12)C(=O)N[C@@H](CO)C(=O)N[C@@H](CCCCN)C(=O)N[C@H](CCCCN)C(=O)N[C@@H](Cc1ccccc1)C(=O)N[C@@H](CCC(=O)O)C(=O)N[C@H](C(=O)N[C@@H](C(=O)N[C@@H](C)C(=O)O)[C@@H](C)CC)C(C)C)C(C)C [Peptide 6, Oct-TriA1 (2,8-D-Lys, 7-Lys)] (HELM PEPTIDE1{[CCCCCCCC(=O)[*:2]].[dV].[dK].G.[dS].[dW].S.K.[dK].F.E.V.[CC[C@H](C)[C@@H](N[*:1])C(=O)[*:2]].A}$$$$V2.0) | 6.25 | 25 | 25 | 25 | 50 | 25 | 50 | 25 | 25 | 50 | 100 | 86.4 |  |  | 
5 | CCCCCCCC(=O)N[C@@H](C(=O)N[C@H](CCCN)C(=O)NCC(=O)N[C@H](CO)C(=O)N[C@H](Cc1c[nH]c2ccccc12)C(=O)N[C@@H](CO)C(=O)N[C@@H](CCCN)C(=O)N[C@H](CCN)C(=O)N[C@@H](Cc1ccccc1)C(=O)N[C@@H](CCC(=O)O)C(=O)N[C@H](C(=O)N[C@@H](C(=O)N[C@@H](C)C(=O)O)[C@@H](C)CC)C(C)C)C(C)C [Peptide 3, Oct-TriA1 (2-D-Orn, 7-Orn)] (Octanoyl-[dV][dOrn]G[dS][dW]S[Orn][dDab]FEV[d(aIle)]A-OH) | 100 | 50 | 50 | 25 | 25 | 25 | 25 | 25 | 25 | 100 | 12.5 | 66.7 |  | enhanced antimicrobial activity | 
6 | CCCCCCCC(=O)N[C@@H](C(=O)N[C@H](CCCN)C(=O)NCC(=O)N[C@H](CO)C(=O)N[C@H](Cc1c[nH]c2ccccc12)C(=O)N[C@@H](CO)C(=O)N[C@@H](CCCN)C(=O)N[C@H](CCCN)C(=O)N[C@@H](Cc1ccccc1)C(=O)N[C@@H](CCC(=O)O)C(=O)N[C@H](C(=O)N[C@@H](C(=O)N[C@@H](C)C(=O)O)[C@@H](C)CC)C(C)C)C(C)C [Peptide 5, Oct-TriA1 (2,8-D-Orn, 7-Orn)] (Octanoyl-[dV][dOrn]G[dS][dW]S[Orn][dOrn]FEV[d(aIle)]A-OH) | 12.5 | 50 | 50 | 6.25 | 25 | 25 | 25 | 6.25 | 25 | 12.5 | 50 | 77.5 |  |  | 
